We go through five compounds from US12139520B2 (priority 2020, dated 2024).

Bridge positions count the residues as written; N and C are the ends. Square brackets hold non-standard residues; d marks the D form. Peptide text beside a SMILES is read from it. Hyp = O=C(O)[C@@H]1C[C@@H](O)CN1; Cit = NC(=O)NCCC[C@H](N)C(=O)O

The target in one series is hAM1 receptor (Homo sapiens, UniProt O60895+Q16602). The experiment in a line: cAMP assay for in vitro receptor activation, hAM1-R. Type of series: cell-based. Particulars: cAMP assay, hAM1 receptor; read-out: hAM1R EC50. In outline: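 Monoclonal stable hAM1-overexpressing cells, thawed from frozen stock; 8000 cells/well in DPBS + 0.05% casein + 0.5 mM IBMX; read-out cAMP.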

The nature of series [1]: Physical stability of peptide analogues (Thioflavin T fibrillation). Type of series: physicochemical. Particulars: maximum ThT signal normalized between hAMY maximum and buffer background; 40° C., shaking, four days; pH 7 per table title. The method in brief:
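ThT fluorescence (450 nm excitation, 480 nm emission; 4 μM dye) was read every 10 min over four days at 40° C under 700 rpm shaking stress, after 1 h in pH 4 acetate or pH 7 phosphate (50 mM). Peak smoothed signal expressed as percent, scaled between buffer background and hAMY maximum.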

hAM1 receptor, sequence (Q16602 23-461): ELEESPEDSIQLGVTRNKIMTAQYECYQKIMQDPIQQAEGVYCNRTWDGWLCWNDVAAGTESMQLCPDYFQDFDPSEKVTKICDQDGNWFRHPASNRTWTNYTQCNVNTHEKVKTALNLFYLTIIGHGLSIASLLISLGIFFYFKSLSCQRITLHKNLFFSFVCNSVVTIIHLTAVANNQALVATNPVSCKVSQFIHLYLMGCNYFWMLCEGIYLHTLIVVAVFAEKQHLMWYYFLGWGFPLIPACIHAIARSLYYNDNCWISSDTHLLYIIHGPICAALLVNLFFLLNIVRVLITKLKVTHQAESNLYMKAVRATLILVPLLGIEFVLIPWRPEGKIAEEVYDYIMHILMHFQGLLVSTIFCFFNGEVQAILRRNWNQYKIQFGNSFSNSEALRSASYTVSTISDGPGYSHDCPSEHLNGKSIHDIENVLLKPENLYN
hAM1 receptor, sequence (O60895 43-175 partner): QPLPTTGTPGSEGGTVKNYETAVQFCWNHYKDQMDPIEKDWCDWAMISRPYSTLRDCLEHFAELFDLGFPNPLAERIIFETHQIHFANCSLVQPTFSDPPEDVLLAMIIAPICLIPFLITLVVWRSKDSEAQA

For `CC[C@H](C)[C@H](NC(=O)[C@H](CCC(N)=O)NC(=O)[C@H](Cc1c[nH]cn1)NC(=O)[C@H](C)NC(=O)[C@H](CC(C)C)NC(=O)[C@H](CCCNC(=N)N)NC(=O)[C@H](CCC(N)=O)NC(=O)[C@@H](NC(=O)[C@@H](NC(=O)[C@@H]1CSSC[C@H](NC(=O)CN)C(=O)N[C@@H](CCCNC(=N)N)C(=O)N[C@@H]([C@@H](C)O)C(=O)NCC(=O)N[C@@H]([C@@H](C)O)C(=O)N1)[C@@H](C)O)C(C)C)C(=O)N[C@@H](Cc1ccc(O)cc1)C(=O)N[C@@H](CCC(N)=O)C(=O)N[C@@H](Cc1ccccc1)C(=O)N[C@H](C(=O)N[C@@H](CC(=O)O)C(=O)N[C@@H](CCCCN)C(=O)N[C@@H](Cc1ccccc1)C(=O)N[C@@H](CCCCN)C(=O)N[C@@H](CC(=O)O)C(=O)N[C@@H](CC(N)=O)C(=O)N[C@H](C(=O)N[C@@H](C)C(=O)N1CCC[C@H]1C(=O)N[C@@H](CCCNC(=N)N)C(=O)N[C@@H](CO)C(=O)N[C@@H](CCCCN)C(=O)N[C@H](C(=O)N[C@@H](CO)C(=O)N1CCC[C@H]1C(=O)N[C@@H](CCC(N)=O)C(=O)N[C@H](C(=O)N[C@@H](CCSC)C(N)=O)[C@@H](C)O)[C@@H](C)CC)C(C)C)[C@@H](C)O` [compound 215] (H-GCRTGTCTVQRLAHQIYQFTDKFKDNVAPRSKISPQTM-NH2; disulfide 2-7), the EC50 on hAM1 receptor was above 5 µM. For the same compound, the “Max ThT signal (%)” value in series [1] is 0.600%.
On to `CC[C@H](C)[C@H](NC(=O)[C@H](CC(N)=O)NC(=O)[C@@H](NC(=O)[C@H](CCCNC(=N)N)NC(=O)[C@@H]1CCCN1C(=O)[C@H](C)NC(=O)[C@@H](NC(=O)[C@H](CC(N)=O)NC(=O)[C@H](CC(=O)O)NC(=O)[C@H](CCCCN)NC(=O)[C@H](CC(=O)O)NC(=O)[C@H](CCCCN)NC(=O)[C@H](CC(=O)O)NC(=O)[C@@H](NC(=O)[C@H](Cc1ccccc1)NC(=O)[C@H](CCC(N)=O)NC(=O)[C@H](Cc1ccc(O)cc1)NC(=O)[C@@H](NC(=O)[C@H](CCC(N)=O)NC(=O)[C@H](Cc1c[nH]cn1)NC(=O)[C@H](C)NC(=O)[C@H](CC(C)C)NC(=O)[C@H](Cc1c[nH]c2ccccc12)NC(=O)[C@H](CCC(N)=O)NC(=O)[C@@H](NC(=O)[C@@H](NC(=O)[C@@H]1CSSC[C@H](NC(=O)CN)C(=O)N[C@@H](CCCNC(=N)N)C(=O)N[C@@H]([C@@H](C)O)C(=O)NCC(=O)N[C@@H]([C@@H](C)O)C(=O)N1)[C@@H](C)O)C(C)C)[C@@H](C)CC)[C@@H](C)O)C(C)C)[C@@H](C)O)C(=O)NCC(=O)N1CCC[C@H]1C(=O)N[C@@H](CCC(N)=O)C(=O)NCC(=O)N[C@@H](Cc1ccc(O)cc1)C(N)=O` [compound 356] (H-GCRTGTCTVQWLAHQIYQFTDKDKDNVAPRTNIGPQGY-NH2; disulfide 2-7), for which, at hAM1 receptor, the half-maximal effective concentration (EC50) is above 5 µM. Further, the “Max ThT signal (%)” value in series [1] is on record as 1.250%.
As to `CC[C@H](C)[C@H](NC(=O)[C@H](CCC(N)=O)NC(=O)[C@H](Cc1c[nH]cn1)NC(=O)[C@H](C)NC(=O)[C@H](CC(C)C)NC(=O)[C@H](CCCNC(=N)N)NC(=O)[C@H](CCC(N)=O)NC(=O)[C@@H](NC(=O)[C@@H](NC(=O)[C@@H]1CSSC[C@H](NC(=O)CN)C(=O)N[C@@H](CCCNC(=N)N)C(=O)N[C@@H]([C@@H](C)O)C(=O)NCC(=O)N[C@@H]([C@@H](C)O)C(=O)N1)[C@@H](C)O)C(C)C)C(=O)N[C@@H](Cc1ccc(O)cc1)C(=O)N[C@@H](CCC(N)=O)C(=O)N[C@@H](Cc1ccccc1)C(=O)N[C@H](C(=O)N[C@@H](CC(N)=O)C(=O)N[C@@H](CCCCN)C(=O)N[C@@H](CC(=O)O)C(=O)N[C@@H](CCCCN)C(=O)N[C@@H](CC(=O)O)C(=O)N[C@@H](CC(N)=O)C(=O)N[C@H](C(=O)N[C@@H](C)C(=O)N1CCC[C@H]1C(=O)N[C@@H](CCCNC(=N)N)C(=O)N[C@@H](CO)C(=O)N[C@@H](CCCCN)C(=O)N[C@H](C(=O)N[C@@H](CO)C(=O)N1CCC[C@H]1C(=O)N[C@@H](CCC(N)=O)C(=O)N[C@@H](Cc1c[nH]cn1)C(=O)N1C[C@H](O)C[C@H]1C(N)=O)[C@@H](C)CC)C(C)C)[C@@H](C)O` [compound 219] (H-GCRTGTCTVQRLAHQIYQFTNKDKDNVAPRSKISPQH[Hyp]-NH2; disulfide 2-7; N-terminus assumed), the EC50 at hAM1 receptor was 4.25 µM. Further, the “Max ThT signal (%)” value in series [1] was found to be 0.700%.
Consider `CC(C)C[C@H](NC(=O)[C@H](Cc1c[nH]c2ccccc12)NC(=O)[C@H](CCC(N)=O)NC(=O)[C@@H](NC(=O)[C@@H](NC(=O)[C@@H]1CSSC[C@H](NC(=O)CN)C(=O)N[C@@H](CCCNC(=N)N)C(=O)N[C@@H](Cc2ccccc2)C(=O)NCC(=O)N[C@@H]([C@@H](C)O)C(=O)N1)[C@@H](C)O)C(C)C)C(=O)N[C@@H](C)C(=O)N[C@@H](CC(N)=O)C(=O)N[C@@H](Cc1ccccc1)C(=O)N[C@@H](CC(C)C)C(=O)N[C@@H](Cc1ccc(O)cc1)C(=O)N[C@@H](CCC(N)=O)C(=O)N[C@@H](Cc1ccccc1)C(=O)N[C@H](C(=O)N[C@@H](CC(=O)O)C(=O)N[C@@H](CCCCN)C(=O)N[C@@H](CC(=O)O)C(=O)N[C@@H](CCCCN)C(=O)N[C@@H](CC(=O)O)C(=O)N[C@@H](CC(N)=O)C(=O)N[C@H](C(=O)N[C@@H](C)C(=O)N1CCC[C@H]1C(=O)N[C@@H](CCCNC(=N)N)C(=O)N[C@H](C(=O)N[C@@H](CC(N)=O)C(=O)N[C@H](C(=O)NCC(=O)N1CCC[C@H]1C(=O)N[C@@H](CCC(N)=O)C(=O)NCC(=O)N[C@@H](Cc1ccc(O)cc1)C(N)=O)C(C)C)[C@@H](C)O)C(C)C)[C@@H](C)O` [compound 311] (H-GCRFGTCTVQWLANFLYQFTDKDKDNVAPRTNVGPQGY-NH2; disulfide 2-7; N-terminus assumed), for which, on hAM1 receptor, the EC50 is above 5 µM. The “Max ThT signal (%)” value in series [1] is on record as 6.450%.
As to `CC[C@H](C)[C@H](NC(=O)[C@H](CCCCN)NC(=O)[C@@H](NC(=O)[C@H](CCCNC(=N)N)NC(=O)[C@@H]1CCCN1C(=O)[C@H](C)NC(=O)[C@@H](NC(=O)[C@H](CC(N)=O)NC(=O)[C@H](CC(=O)O)NC(=O)[C@H](CCCCN)NC(=O)[C@H](CC(=O)O)NC(=O)[C@H](CCCCN)NC(=O)[C@H](CC(=O)O)NC(=O)[C@@H](NC(=O)[C@H](Cc1ccccc1)NC(=O)[C@H](CCC(N)=O)NC(=O)[C@H](Cc1ccc(O)cc1)NC(=O)[C@@H](NC(=O)[C@H](CCC(N)=O)NC(=O)[C@H](Cc1c[nH]cn1)NC(=O)[C@H](C)NC(=O)[C@H](CC(C)C)NC(=O)[C@H](CCCNC(N)=O)NC(=O)[C@H](CCC(N)=O)NC(=O)[C@@H](NC(=O)[C@@H](NC(=O)[C@@H]1CSSC[C@H](NC(=O)CN)C(=O)N[C@@H](CCCNC(=N)N)C(=O)N[C@@H]([C@@H](C)O)C(=O)NCC(=O)N[C@@H]([C@@H](C)O)C(=O)N1)[C@@H](C)O)C(C)C)[C@@H](C)CC)[C@@H](C)O)C(C)C)[C@@H](C)O)C(=O)NCC(=O)N1CCC[C@H]1C(=O)N[C@@H](CCC(N)=O)C(=O)NCC(=O)N1C[C@H](O)C[C@H]1C(N)=O` [compound 301] (H-GCRTGTCTVQ[Cit]LAHQIYQFTDKDKDNVAPRTKIGPQG[Hyp]-NH2; disulfide 2-7; N-terminus assumed), the half-maximal effective concentration (EC50) at hAM1 receptor was above 5 µM. Further, the “Max ThT signal (%)” value in series [1] is on record as 16.950%.
